US20250302804A1, “RESOMELAGON AND ITS DERIVATIVES FOR THE TREATMENT OF CARDIOVASCULAR DISEASE, HYPERTENSION AND ATHEROSCLEROSIS” (SYNACT PHARMA ApS, priority 2022, published 2025)

How the values were obtained:
[1] = tested on: acute peritonitis induced by zymosan A in mice; assay: Zymosan A-induced acute peritonitis in mice: IL-1β, IL-6 and neutrophil accumulation; type: in vivo; conditions: 1 mg/kg intraperitoneal 30 minutes before zymosan, 12 hours, N=6
Description: Acute peritonitis was induced by the injection of 1 mg zymosan A (Sigma-Aldrich) i.p. in 0.5 ml sterile PBS in mice. Twelve hours later the mice were sacrificed by CO2 exposure, and peritoneal cavities were washed with 4 ml ice-cold PBS containing 3 mM EDTA. Cells were stained with Turk's solution (0.01% crystal violet in 3% acetic acid) and counted using a Neubauer hemocytometer or were stained with FITC-conjugated mAb for Ly-6G/Gr1, F4/80, and corresponding isotype controls (eBioscience, Hatfield, U.K.), and subjected to flow-cytometry analysis using a BD FACSCalibur platform (BD Biosciences, Oxford, U.K.). Levels of IL-1B and IL-6 in quick frozen samples were quantified according to the manufacturer's instructions using ELISA Ready-SET-Go! (eBioscience). All animal studies were approved by and performed under the guidelines of the Ethical Committee for the Use of Animals, Barts and The London School of Medicine and Home Office regulations (Guidance on the Operation of Animals, Scientific Procedures Act, 1986). Male (7-8 wk old) C57BL/6J wild-type (WT) mice were purchased from Charles River Laboratories. Test Item A, 1 mg/kg or vehicle treatment were given intraperitoneal 30 minutes before induction of the acute peritonitis. N=6 for in both groups.

[2] = tested on: experimental inflammatory arthritis; conditions: oral; cited from earlier work
melanocytes = conditions: cited from earlier work
MC1R = conditions: cited from earlier work
macrophages = conditions: cited from earlier work
peritonitis = conditions: oral; cited from earlier work
[3] = Phase I repeated dose study, peak and trough concentrations at steady conditions; type: in vivo, human; conditions: 200 mg once daily
[4] = tested on: early rheumatoid arthritis (RA) patients with active joint disease; assay: Phase IIa placebo-controlled study in early rheumatoid arthritis patients: CDAI; type: in vivo, human; conditions: for CDAI group mean, Baseline / CDAI group mean, Screening / CDAI group mean, Week 4 / CDAI group mean, Week 2 / CDAI group mean, Week 5 / CDAI Difference / CDAI Difference in %: n = 31; for CDAI group mean, Baseline / CDAI group mean, Screening: before treatment; for CDAI group mean, Week 4: end of treatment; for CDAI group mean, Week 2: mid-treatment; for CDAI group mean, Week 5: one week follow-up after last dosage; for CDAI Difference / CDAI Difference in %: week 4 vs baseline
Description: (§1) The study population will consist of newly diagnosed subjects with severe active RA (CDAI (Clinical disease activity score)>22) who are to start up-titration with methotrexate (MTX).
The doses used in this Example are calculated based on the specific acetate salt form.
The study population will consist of newly diagnosed subjects with severe active RA (CDAI >22) who are to start up-titration with MTX. A minimum of 90 subjects are expected to complete the study; plus 45 subjects from Bulgaria and/or Moldova for a sub-study. Up to 120 subjects are planned to be enrolled to account for discontinuation rate, and up to 60 subjects for the sub-study.
The CDAI is a clinical composite score for following patients with RA.
Descriptive changes in CDAI where CDAI=SJC (28)+TJC (28)+PGA+IGA; • SJC (28): Swollen 28-Joint Count (shoulders, elbows, wrists, MCPs, PIPs including thumb IP, knees); • TJC (28): Tender 28-Joint Count (shoulders, elbows, wrists, MCPs, PIPs including thumb IP, knees); • PGA: Patient Global Disease Activity (patient's self-assessment of overall RA disease activity on a scale 0-100 where 100 is maximal activity); • IGA: Physician's Global Disease Activity (evaluator's assessment of the subject's overall RA disease activity on a scale 0-100 where 100 is maximal activity)
The CDAI will be scored at screening, baseline, after 2 weeks and 4 weeks treatment, and at the final visit (one week after final dose).

MC3R = conditions: cited from earlier work
[5] = Phase IIa study in early RA patients: blood pressure and clinically notable vital sign abnormalities; type: in vivo, human; conditions: for MAP Average/Median: MAP = DAP + ⅓(SAP − DAP); for CNA (clinically notable vital sign abnormalities): SAP ≥160, <90, DAP ≥105, <50
Description: as §1
Safety measures (AEs, SAEs, including laboratory abnormalities and vital signs such as blood pressure) will be registered during the whole study duration.

[6] = 50 mg AP1189 once daily plus MTX
[7] = 100 mg AP1189 once daily plus MTX

## NC(N)=N/N=C/C=C/c1cccn1-c1ccccc1[N+](=O)[O-] [AP1189, (E)-N-trans-{3-[1-(2-nitrophenyl)-1H-pyrrol-2-yl]-allylidene}-aminoguanidium acetate]
[1]
  reduction of neutrophil accumulation compared to pretreatment with vehicle: 70%
[1]; p<0.05 vs vehicle
  reduction of IL-1β levels compared to pretreatment with vehicle: 37%
  reduction of IL-6 levels compared to pretreatment with vehicle: 59%
[2]
  macroscopic and histological parameters of joint disruption: significant reduction
melanocytes
  melanogenesis: no melanogenesis was induced
MC1R; MC1R
  ERK1/2 phosphorylation: cause ERK1/2 phosphorylation
  canonical cAMP generation: does not induce canonical CAMP generation
MC1R
  agonist character at MC1R: biased agonist
macrophages
  cytokine release: reduce cytokine release
peritonitis
  anti-inflammatory action in peritonitis: elicits anti-inflammatory actions
[3]
  C Trough (Mean +/− SD, N = 9): 186 ± 45 ng/mL
[4]; [6]
  CDAI group mean, Baseline: 36.1
  CDAI group mean, Screening: 35.6
  CDAI group mean, Week 4: 24.2
  CDAI group mean, Week 2: 29.9
  CDAI group mean, Week 5: 22.9
  CDAI Difference: −11.9
  CDAI Difference in %: 33%
[4]; [7]
  CDAI group mean, Baseline: 39
  CDAI group mean, Screening: 38.9
  CDAI group mean, Week 4: 23.9
  CDAI group mean, Week 2: 28.9
  CDAI group mean, Week 5: 21.3
  CDAI Difference: −15.1
  CDAI Difference in %: 39%
[4]; both tested dosages, 50 mg and 100 mg
  effect in reducing CDAI: significant effect
MC3R; MC3R
  ERK1/2 phosphorylation: cause ERK1/2 phosphorylation
  canonical cAMP generation: does not induce canonical CAMP generation
MC3R
  agonist character at MC3R: biased agonist
[5]; 50 mg AP1189, 4 Weeks, n 33
  DAP Average/Median: 79.9 mmHg
  SAP Average/Median: 129.1 mmHg
  MAP Average/Median: 96.3 mmHg
  CNA (clinically notable vital sign abnormalities): 2 (6%)
[5]; 50 mg AP1189, Base Line, n 33
  DAP Average/Median: 80.0 mmHg
  SAP Average/Median: 131.3 mmHg
  MAP Average/Median: 97.1 mmHg
  CNA (clinically notable vital sign abnormalities): 4 (11%)
[5]; 50 mg AP1189 group
  decrease in DAP after 4 weeks treatment: 0.1 mmHg
  decrease in MAP after 4 weeks treatment: 0.8 mmHg
  decrease in SAP after 4 weeks treatment: 2.2 mmHg
[5]; 100 mg AP1189, 4 Weeks, n 34
  DAP Average/Median: 80.3 mmHg
  SAP Average/Median: 126.8 mmHg
  MAP Average/Median: 95.8 mmHg
  CNA (clinically notable vital sign abnormalities): 1 (3%)
[5]; 100 mg AP1189, Base Line, n 34
  DAP Average/Median: 81.1 mmHg
  SAP Average/Median: 129.9 mmHg
  MAP Average/Median: 97.4 mmHg
  CNA (clinically notable vital sign abnormalities): 4 (11%)
[5]; 100 mg AP1189 group
  decrease in DAP after 4 weeks treatment: 0.8 mmHg
  decrease in MAP after 4 weeks treatment: 1.6 mmHg
  decrease in SAP after 4 weeks treatment: 3.1 mmHg
[5]; both treatment groups (50 mg and 100 mg), 4 weeks, no change in placebo group
  number of observed abnormalities in blood pressure: reduced
